Key:
[1] = test system: αvβ6 integrin; conditions: cited from earlier work
[2] = Pulmonary function tests (DLCO, FEV1, FVC), change from baseline; format: in vivo, human
Procedure: Participants were under continuous medical supervision during each admission period (up to 48 h post-dose), and safety assessments were made at regular intervals throughout each period and until the end of follow-up. Assessment of safety was conducted by monitoring AEs, clinical laboratory tests (haematology, clinical chemistry and urinalysis), vital signs (including pulse oximetry), 12-lead ECGs, telemetry, physical examinations and pulmonary function tests (forced expiratory volume in 1 s [FEV1], FVC, diffusing capacity of the lung for carbon monoxide).

[3] = test system: αvβ6 integrin-mediated TGFβ activation; conditions: in vitro experiments; cited from earlier work
[4] = IPF patients treated; cited from earlier work

## Cc1cc(C)n(-c2cccc([C@H](CC(=O)O)CN3CC[C@@H](CCc4ccc5c(n4)NCCC5)C3)c2)n1 [GSK3008348]
[1]
  Binding affinity for the αvβ6 integrin: high affinity
[2]; 1 mcg, N=6
  DLCO, mean change from baseline to 24 h post dose: -0.153 L
  FEV1, mean change from baseline to 24 h post dose: -0.043 L
  FVC, mean change from baseline to 24 h post dose: -0.06 L
[2]; 3 mcg, N=6
  DLCO, mean change from baseline to 24 h post dose: 0.938 L
  FEV1, mean change from baseline to 24 h post dose: -0.007 L
  FVC, mean change from baseline to 24 h post dose: 0.125 L
[2]; 10 mcg, N=6
  DLCO, mean change from baseline to 24 h post dose: 0.113 L
  FEV1, mean change from baseline to 24 h post dose: -0.053 L
  FVC, mean change from baseline to 24 h post dose: -0.105 L
[2]; 30 mcg, N=6
  DLCO, mean change from baseline to 24 h post dose: -0.168 L
  FEV1, mean change from baseline to 24 h post dose: 0.085 L
  FVC, mean change from baseline to 24 h post dose: 0.033 L
[2]; 100 mcg, N=6
  DLCO, mean change from baseline to 24 h post dose: -0.862 L
  FEV1, mean change from baseline to 24 h post dose: 0.023 L
  FVC, mean change from baseline to 24 h post dose: 0.12 L
[2]; 300 mcg, N=6
  DLCO, mean change from baseline to 24 h post dose: 0.562 L
  FEV1, mean change from baseline to 24 h post dose: -0.072 L
  FVC, mean change from baseline to 24 h post dose: -0.078 L
[2]; 1000 mcg, N=12
  DLCO, mean change from baseline to 24 h post dose: -0.293 L
  FEV1, mean change from baseline to 24 h post dose: -0.027 L
  FVC, mean change from baseline to 24 h post dose: -0.014 L
[2]; 3000 mcg, N=11
  DLCO, mean change from baseline to 24 h post dose: 0.547 L
  FEV1, mean change from baseline to 24 h post dose: -0.025 L
  FVC, mean change from baseline to 24 h post dose: -0.094 L
[2]; all dose levels
  Individual change from baseline in FEV1 and FVC over time between treatment groups: did not show clinically significant differences

## COC(=O)c1ccc2c(c1)NC(=O)/C2=C(\Nc1ccc(N(C)C(=O)CN2CCN(C)CC2)cc1)c1ccccc1 [nintedanib]
[3]
  Effects on αvβ6 integrin-mediated TGFβ activation: limited effects
[4]
  Discontinuation due to adverse events (AEs), patients: ~20%

## Cc1ccc(=O)n(-c2ccccc2)c1 [pirfenidone]
[3]
  Effects on αvβ6 integrin-mediated TGFβ activation: limited effects
[4]
  Discontinuation due to adverse events (AEs), patients: approximately 30%
